What was measured:
Format in all cases: cell-based, human
Details in all cases: 50 μM, 24 h
MDA-MB-231 cells = experiment: MTT antiproliferation assay, MDA-MB-231 cells
Procedure: (§1) Cell Lines and Culture. MCF-7, T-47D, and H184B5F5/M10 cells were cultured with 5% CO2 atmosphere at 37° C.; MDA-MB-231 cells were cultured without CO2 at 37° C. The MCF-7 cells were cultured in MEM containing 10% heat-inactivated FBS, 100 units/mL penicillin, 100 μg/mL streptomycin, and 1 mM sodium pyruvate. The T-47D cells were maintained in RPMI-1640 medium containing 10% heat inactivated FBS, 100 units/mL penicillin, and 100 μg/mL streptomycin. […]
(§2) Assay for Antiproliferation. To determine the antiproliferative effect, MCF-7, T-47D, MDA-MB-231, or H184B5F5/M10 cells were assessed using the MTT assay as previously reported (Ho, C. Y.; Kim, C, F.; Leung, K. N.; Fung, K. P.; Tse, T. F.; Chan, H.; Lau, C. B. Differential anti-tumor activity of Coriolus versicolor (Yunzhi) extract through p53- and/or Bcl-2-dependent apoptotic pathway in human breast cancer cells. Cancer Biol. Ther. 2005, 4, e11-e17). […] The absorbance at 570 nm was measured, and the viability of cells was calculated using the following equation: relative cell number (%)=(average absorbance of treated wells)×100/(average absorbance of blank vehicle wells).

MCF-7 cells = experiment: MTT antiproliferation assay, MCF-7 cells
Procedure: as §1, §2

T-47D cells = experiment: MTT antiproliferation assay, T-47D cells
Procedure: as §1, §2

Substance | percentage of inhibition (MDA-MB-231 cells) | percentage of inhibition (MCF-7 cells) | percentage of inhibition (T-47D cells)
coixspirolactam D [compound 1] | 47.4% | 30.2% | –
coixspirolactam E [compound 2] | 25.3% | – | 20.7%

Reference: patent US8633238B2, “Lactams and uses thereof” (Joben Bio-Medical Co., Ltd., priority 2012, dated 2014)
